Numbers after ± are expanded uncertainties.
Settings: Liquid, Closed cell (Static) method

FC(F)CC(F)(F)F [1,1,1,3,3-pentafluoropropane]
Settings | vapor or sublimation pressure [kPa]
253.12 K | 19.34 ± 0.7
258.16 K | 25.37 ± 0.7
263.13 K | 32.79 ± 0.7
268.12 K | 41.88 ± 0.7
273.12 K | 52.91 ± 0.71
278.12 K | 66.17 ± 0.71
283.15 K | 82.07 ± 0.71
285.14 K | 89.11 ± 0.71
288.12 K | 100.56 ± 0.72
293.09 K | 122.2 ± 0.72
295.08 K | 131.93 ± 0.73
298.06 K | 147.46 ± 0.73
303.06 K | 177.01 ± 0.75
305.05 K | 190.2 ± 0.76
308.05 K | 210.95 ± 0.77
310.09 K | 225.91 ± 0.78
313.1 K | 249.94 ± 0.79
315.08 K | 266.8 ± 0.8
318.12 K | 294.26 ± 0.82
320.17 K | 312.44 ± 0.84
323.16 K | 343.03 ± 0.86
325.16 K | 364.63 ± 0.88
328.16 K | 398.98 ± 0.91
330.16 K | 423.22 ± 0.93
333.16 K | 461.65 ± 0.97
338.16 K | 531.78 ± 1
343.16 K | 609.29 ± 1.1
345.16 K | 642.58 ± 1.2
348.16 K | 695.02 ± 1.2
353.16 K | 789.45 ± 1.3
358.16 K | 893.28 ± 1.5
363.16 K | 1007 ± 1.6
368.13 K | 1130.3 ± 1.8
373.13 K | 1265.7 ± 2
378.16 K | 1413.6 ± 2.2
383.15 K | 1573.3 ± 2.5
388.14 K | 1745.4 ± 2.7
393.14 K | 1932.2 ± 3
398.12 K | 2133.2 ± 3.3
403.07 K | 2348.2 ± 3.7

COCOC [dimethoxymethane]
Settings | vapor or sublimation pressure [kPa]
283.13 K | 27.73 ± 1.4
285.13 K | 30.39 ± 1.4
288.11 K | 34.73 ± 1.4
293.07 K | 43.08 ± 1.4
295.07 K | 46.83 ± 1.4
298.07 K | 52.94 ± 1.4
300.07 K | 57.14 ± 1.4
303.05 K | 64.26 ± 1.4
305.05 K | 69.42 ± 1.4
308.05 K | 77.74 ± 1.4
310.07 K | 83.8 ± 1.4
313.16 K | 93.85 ± 1.4
318.13 K | 111.95 ± 1.4
323.17 K | 132.98 ± 1.4
325.18 K | 142.06 ± 1.4
328.17 K | 156.44 ± 1.4
330.17 K | 166.67 ± 1.4
333.17 K | 182.96 ± 1.4
335.17 K | 194.47 ± 1.4
338.16 K | 212.79 ± 1.4
340.16 K | 225.73 ± 1.4
343.16 K | 246.24 ± 1.4
345.16 K | 260.68 ± 1.4
348.16 K | 283.65 ± 1.5
353.16 K | 325.16 ± 1.5
358.16 K | 371.53 ± 1.5
363.16 K | 421.82 ± 1.5
368.16 K | 477.61 ± 1.6
373.15 K | 538.51 ± 1.6
378.16 K | 605.33 ± 1.6
383.13 K | 677.68 ± 1.7
388.15 K | 757.05 ± 1.8
393.16 K | 842.82 ± 1.9
398.15 K | 935.48 ± 1.9

From the NIST ThermoML archive (doi:10.1021/je0503251)
